Data reported in the supplement of paper PMC10307832.

Assays:
Experiment in all cases: relative viability (nuclei count vs DMSO), 5 days (fraction); higher = more cells survive
NCI-H2023 = system: NCI-H2023
Summary of the method: (§1)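 Nuclei were stained with Hoechst during a one-step fixation (final 0.05% Triton X-100, 1% formaldehyde, 1 ug/ml Hoechst) carried out 5 days after dosing, then counted on 4× images. The cells, lung cancer lines in 1536-well plates, had been dosed by pin tool the day after seeding with one drug alone or a fixed anchor-drug dose plus five library-drug doses (not always all listed) in √10 steps. Relative viability is the nuclei count in treated wells divided by that in vehicle wells, and each value is the median of duplicate plates.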

PC-3 [JPC-3] = system: PC-3 [JPC-3]
Summary of the method: as §1

HARA = system: HARA
Summary of the method: as §1

NCI-H2228 = system: NCI-H2228
Summary of the method: as §1

LC-2-ad = system: LC-2-ad
Summary of the method: as §1

NCI-H650 = system: NCI-H650
Summary of the method: as §1

EPLC-272H = system: EPLC-272H
Summary of the method: as §1

NCI-H838 = system: NCI-H838
Summary of the method: as §1

NCI-H1651 = system: NCI-H1651
Summary of the method: as §1

H3255 = system: H3255
Summary of the method: as §1

NCI-H23 = system: NCI-H23
Summary of the method: as §1

NCI-H441 = system: NCI-H441
Summary of the method: as §1

NCI-H1975 = system: NCI-H1975
Summary of the method: as §1

NCI-H2087 = system: NCI-H2087
Summary of the method: as §1

NCI-H1650 = system: NCI-H1650
Summary of the method: as §1

SW 1573 = system: SW 1573
Summary of the method: as §1

NCI-H727 = system: NCI-H727
Summary of the method: as §1

LOU-NH91 = system: LOU-NH91
Summary of the method: as §1

NCI-H2009 = system: NCI-H2009
Summary of the method: as §1

NCI-H2085 = system: NCI-H2085
Summary of the method: as §1

UMC-11 = system: UMC-11
Summary of the method: as §1

SMILES: Cc1csc(=NC2CCCCC2)n1/N=C/c1ccc(O)c(O)c1O [MIM1] + CC(C)C[C@H](NC(=O)[C@H](Cc1ccccc1)NC(=O)c1cnccn1)B(O)O [Bortezomib] (partner 0.002 µM)
- relative viability (NCI-H2023; first compound 0.2 µM): 1.11
- relative viability (NCI-H2023; first compound 0.6325 µM): 0.916
- relative viability (NCI-H2023; first compound 2 µM): 0.765
- relative viability (NCI-H2023; first compound 6.325 µM): 0.35
- relative viability (NCI-H2023; first compound 20 µM): 0.0682
- relative viability (PC-3 [JPC-3]; first compound 0.2 µM): 0.862
- relative viability (PC-3 [JPC-3]; first compound 0.6325 µM): 0.7
- relative viability (PC-3 [JPC-3]; first compound 2 µM): 0.77
- relative viability (PC-3 [JPC-3]; first compound 6.325 µM): 0.703
- relative viability (PC-3 [JPC-3]; first compound 20 µM): 0.496
- relative viability (HARA; first compound 0.2 µM): 1.09
- relative viability (HARA; first compound 0.6325 µM): 1.1
- relative viability (HARA; first compound 2 µM): 1.2
- relative viability (HARA; first compound 6.325 µM): 1.08
- relative viability (HARA; first compound 20 µM): 0.127
- relative viability (NCI-H2228; first compound 0.2 µM): 1.02
- relative viability (NCI-H2228; first compound 0.6325 µM): 1.09
- relative viability (NCI-H2228; first compound 2 µM): 1.09
- relative viability (NCI-H2228; first compound 6.325 µM): 0.414
- relative viability (NCI-H2228; first compound 20 µM): 0.246
- relative viability (LC-2-ad; first compound 0.2 µM): 1.06
- relative viability (LC-2-ad; first compound 0.6325 µM): 0.545
- relative viability (LC-2-ad; first compound 2 µM): 0.986
- relative viability (LC-2-ad; first compound 6.325 µM): 0.383
- relative viability (LC-2-ad; first compound 20 µM): 0.201
- relative viability (NCI-H650; first compound 0.2 µM): 0.769
- relative viability (NCI-H650; first compound 0.6325 µM): 0.73
- relative viability (NCI-H650; first compound 2 µM): 0.682
- relative viability (NCI-H650; first compound 6.325 µM): 0.832
- relative viability (NCI-H650; first compound 20 µM): 0.296
- relative viability (EPLC-272H; first compound 0.2 µM): 0.805
- relative viability (EPLC-272H; first compound 0.6325 µM): 0.796
- relative viability (EPLC-272H; first compound 2 µM): 0.588
- relative viability (EPLC-272H; first compound 6.325 µM): 0.732
- relative viability (EPLC-272H; first compound 20 µM): 0.483
- relative viability (NCI-H838; first compound 0.2 µM): 0.869
- relative viability (NCI-H838; first compound 0.6325 µM): 0.808
- relative viability (NCI-H838; first compound 2 µM): 0.78
- relative viability (NCI-H838; first compound 6.325 µM): 0.53
- relative viability (NCI-H838; first compound 20 µM): 0.136
- relative viability (NCI-H1651; first compound 0.2 µM): 0.92
- relative viability (NCI-H1651; first compound 0.6325 µM): 0.823
- relative viability (NCI-H1651; first compound 2 µM): 0.875
- relative viability (NCI-H1651; first compound 6.325 µM): 0.887
- relative viability (NCI-H1651; first compound 20 µM): 0.685
- relative viability (H3255; first compound 0.2 µM): 0.861
- relative viability (H3255; first compound 0.6325 µM): 0.634
- relative viability (H3255; first compound 2 µM): 0.666
- relative viability (H3255; first compound 6.325 µM): 0.538
- relative viability (H3255; first compound 20 µM): 0.24
- relative viability (NCI-H23; first compound 0.2 µM): 1.08
- relative viability (NCI-H23; first compound 2 µM): 0.702
- relative viability (NCI-H23; first compound 6.325 µM): 0.851
- relative viability (NCI-H23; first compound 20 µM): 0.167
- relative viability (NCI-H441; first compound 0.2 µM): 0.593
- relative viability (NCI-H441; first compound 0.6325 µM): 0.418
- relative viability (NCI-H441; first compound 2 µM): 0.681
- relative viability (NCI-H441; first compound 6.325 µM): 0.521
- relative viability (NCI-H441; first compound 20 µM): 0.171
- relative viability (NCI-H1975; first compound 0.2 µM): 0.428
- relative viability (NCI-H1975; first compound 0.6325 µM): 0.381
- relative viability (NCI-H1975; first compound 2 µM): 0.377
- relative viability (NCI-H1975; first compound 6.325 µM): 0.231
- relative viability (NCI-H1975; first compound 20 µM): 0.221
- relative viability (NCI-H2087; first compound 0.2 µM): 0.753
- relative viability (NCI-H2087; first compound 0.6325 µM): 0.743
- relative viability (NCI-H2087; first compound 2 µM): 0.666
- relative viability (NCI-H2087; first compound 6.325 µM): 0.586
- relative viability (NCI-H2087; first compound 20 µM): 0.498
- relative viability (NCI-H1650; first compound 0.2 µM): 0.263
- relative viability (NCI-H1650; first compound 0.6325 µM): 0.204
- relative viability (NCI-H1650; first compound 2 µM): 0.188
- relative viability (NCI-H1650; first compound 6.325 µM): 0.212
- relative viability (NCI-H1650; first compound 20 µM): 0.165
- relative viability (SW 1573; first compound 0.2 µM): 0.937
- relative viability (SW 1573; first compound 0.6325 µM): 1.05
- relative viability (SW 1573; first compound 2 µM): 0.978
- relative viability (SW 1573; first compound 6.325 µM): 0.811
- relative viability (SW 1573; first compound 20 µM): 0.592
- relative viability (NCI-H727; first compound 0.2 µM): 0.671
- relative viability (NCI-H727; first compound 0.6325 µM): 0.785
- relative viability (NCI-H727; first compound 2 µM): 0.705
- relative viability (NCI-H727; first compound 6.325 µM): 0.602
- relative viability (NCI-H727; first compound 20 µM): 0.286
- relative viability (LOU-NH91; first compound 0.2 µM): 0.462
- relative viability (LOU-NH91; first compound 0.6325 µM): 0.53
- relative viability (LOU-NH91; first compound 2 µM): 0.447
- relative viability (LOU-NH91; first compound 6.325 µM): 0.35
- relative viability (LOU-NH91; first compound 20 µM): 0.267
- relative viability (NCI-H2009; first compound 0.2 µM): 1.01
- relative viability (NCI-H2009; first compound 0.6325 µM): 0.956
- relative viability (NCI-H2009; first compound 2 µM): 1.02
- relative viability (NCI-H2009; first compound 6.325 µM): 0.529
- relative viability (NCI-H2009; first compound 20 µM): 0.106
- relative viability (NCI-H2085; first compound 0.2 µM): 1.08
- relative viability (NCI-H2085; first compound 0.6325 µM): 0.994
- relative viability (NCI-H2085; first compound 2 µM): 0.986
- relative viability (NCI-H2085; first compound 6.325 µM): 0.952
- relative viability (NCI-H2085; first compound 20 µM): 0.989
- relative viability (UMC-11; first compound 0.2 µM): 0.646
- relative viability (UMC-11; first compound 0.6325 µM): 0.389
- relative viability (UMC-11; first compound 2 µM): 0.774
- relative viability (UMC-11; first compound 6.325 µM): 0.364
- relative viability (UMC-11; first compound 20 µM): 0.145
